Data published in US11072601B2, “μ-opioid receptor agonist and preparation method therefor and use thereof in field of medicine” (SHANGHAI SYNERGY PHARMACEUTICAL SCIENCES CO., LTD., priority 2017, dated 2021).

Key:
[1] = system: rat surgical incision injury model; assay: Rat surgical incision injury model, von Frey paw withdrawal threshold; assay type: in vivo, SD rats; settings: rats, intravenous 0.3 mg/kg
Text: 8-week-old male SD rats weighing 200 g-300 g were used as experimental animals to determine the effect of the compound of Example H02, the compound of Example H04, the compound of Example H10, the compound of Example H16, the compound of Example H17, the compound of Example H18, the compound of Example H21 and the compound of Example H24 on surgical pain in rats after intravenous administration. The analgesic effect of the compounds was discussed.
A certain amount of the compounds or TRV130 (MCE, 15150) was weighed, and dissolved in ethanol/castor oil/water=10/10/80 as a clear and transparent solution.
Three days after the rats were acclimatized to the experimental environment, the preoperative base value was determined, and followed by the surgical pain operation described below, about 24 hours after the surgery, the basic value was measured before administration on all animals, and mechanically hypersensitive animals (the paw withdrawal threshold (PWT) was less than 5 g) was randomly assigned to each administration group according to PWT. The pain threshold was determined 30 minutes and 60 minutes after intravenous administration of the positive drug TRV130 or each compound of the present invention (at a dose of 0.3 mg/kg).
The surgical procedure was performed aseptically, and the surgical instruments (scissors, tweezers, scalpels, surgical cotton and sutures) were sterilized before surgery. The animals were anesthetized with sodium pentobarbital (50 mg/kg, injected intraperitoneally), and the toes of the animals were squeezed to confirm that the animals were completely anesthetized before surgery. From the position of 0.5 cm away from the heel, an incision about 1 cm was made in the longitudinal direction of the toe. After cutting the skin, the musculus flexor digitorum brevis was raised and a blunt injury was caused longitudinally. After pressing to stop bleeding, the wound was sutured. When the animal was completely awake (free to move), the animal was put back into the cage (the reference of the construction of surgical pain model: Timothy J. Brennan, Erik P. Vandermeulen, G. F. Gebhart. Characterization of a rat model of incisional pain. Pain, 64(1996):493-501).
An up-down method was used for the determination of pain sensitivity. The mechanical pain results were expressed as animal paw withdrawal response threshold (PWT). The rat was placed separately in a plexiglass box with a mesh at the bottom of the box to ensure that the rat's feet could be tested. The rat was acclimatized for 15 minutes before the test, and after the acclimatization, the test fiber (von frey fiber, West coast) was used to test in the middle part of the hind foot of the rat. The test fibers included 8 test strengths: 3.61 (0.4 g), 3.84 (0.6 g), 4.08 (1 g), 4.31 (2 g), 4.56 (4 g), 4.74 (6 g), 4.93 (8 g), and 5.18 (15 g). During the test, the test fiber was pressed vertically against the skin and a force was applied to bend the fiber for 6-8 seconds, at an interval of 5 seconds between each test. During the test, the animal's rapid withdrawal was recorded as a pain response. When the test fiber left the animal's skin, the animal's withdrawal was also recorded as a pain response. Starting from 2 g, depending on whether the rats had any pain response, the test was changed into the next test intensity or the previous test intensity. A series of responses of the rats to different test intensities were recorded. […] Wherein, Xf was the logarithmic value of von Frey fiber used in the last test, and K value was the animal withdrawal reaction mode (recorded during the test), which was the value obtained after looking up the table according to the obtained sequence of “X” and “O”, δ=Mean of logarithmic difference between von Frey fibers used in the test.

[2] = system: SD rats; assay: Respiratory depression in rats, arterial blood gas PCO2; assay type: in vivo
Text: 8-week-old male SD rats weighing 200 g-300 g were used as experimental animals to determine the effect of the compound of Example H05, the compound of Example H08, the compound of Example H10, the compound of Example H16, the compound of Example H17, the compound of Example H18, the compound of Example H21, and the compound of Example H24 on the partial pressure of blood in rats after intravenous administration. The effects of the compounds of the invention on respiratory depression were investigated.
After the rats were acclimatized to the experimental environment for 3 days, each animal was anesthetized with sodium pentobarbital (50-60 mg/kg, ip), and then the right common carotid artery was isolated and the unilateral carotid artery tube-bury surgery was performed (PE60, ID*OD*length as 0.76 mm*1.22 mm*20 cm, buried into the artery 1 cm deep, and the tube was filled with heparin sodium tube sealing solution).

[3] = biological target: T1, β-arrestin signaling pathway of MOR (Homo sapiens, UniProt P35372); assay: cell-based; settings: PathHunter HEK293 cells, relative to endorphin MAX control
T1 construct: host or cells: HEK293 (PathHunter cell line)
T1 sequence (P35372 whole entry): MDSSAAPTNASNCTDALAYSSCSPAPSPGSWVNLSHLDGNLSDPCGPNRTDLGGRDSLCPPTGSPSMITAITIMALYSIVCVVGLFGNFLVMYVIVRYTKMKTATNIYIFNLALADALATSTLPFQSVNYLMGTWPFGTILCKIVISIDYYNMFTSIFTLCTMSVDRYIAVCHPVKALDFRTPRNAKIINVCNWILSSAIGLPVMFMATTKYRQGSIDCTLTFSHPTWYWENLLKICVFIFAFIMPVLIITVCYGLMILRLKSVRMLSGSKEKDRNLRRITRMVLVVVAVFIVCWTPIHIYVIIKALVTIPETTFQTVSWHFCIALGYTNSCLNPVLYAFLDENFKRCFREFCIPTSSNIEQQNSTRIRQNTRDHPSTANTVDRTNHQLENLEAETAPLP

[4] = biological target: T2, μ opioid receptor (MOR) (Homo sapiens, UniProt P35372); assay: cell-based; settings: HEK293 stably expressing μ opioid receptor, FLIPR calcium
T2 construct: host or cells: HEK293
T2 sequence (P35372 whole entry, species assumed): as the sequence (P35372 whole entry) above
Procedure: The purpose of the experiment was to test the agonistic effects of the compounds of the present invention on μ opioid receptor (MOR), κ opioid receptor (KOR) and δ opioid receptor (DOR), and to evaluate in vitro activity of the compounds according to the half-maximal effect concentration (EC50).
This test was performed using HEK293 cell lines (the stably expressed cell lines were provided by WuXi AppTec) which stably expressed μ opioid receptor, δ opioid receptor or κ opioid receptor respectively. […] The cells were centrifuged at 1000 rpm for 5 minutes at room temperature to precipitate. The supernatant was sucked out, be careful not to suck out cells. The precipitate was flicked into the loose cells and resuspend in 45 ml DMEM medium. The Vi-CELL XR automatic cell viability detector (BECKMAN COULTER) was used to count the cells, and the cell concentration was adjusted to 10×10^5 cells/ml based on the counting results.
Preparation of probenecid mother solution: 1 ml of FLIPR test solution was added to 77 mg probenecid to prepare a 250 mM solution. The solution was freshly prepared just before use.
The solution was freshly prepared just before use.
The cell plate prepared above was removed from the incubator and 20 ul 2× Fluo-4 Direct™ buffer was added thereto. The final volume in the cell plate was […]. The plate was incubated at 37° C., under 5% CO2 for 50 minutes, and incubated at room temperature for 10 minutes, then was placed into the FLIPR instrument (MD), and the compound plate and pipette box was placed into. The protocol was run on the […] platform, 10 μl of positive drug or the test compound was transfered to the cell plate from the compound plate, and the fluorescent signal was read.
The signal value generated by each well was calculated, and the calculation formula was that: the activity %=(signal value of the test compound−signal value of the solvent)/(signal value of the positive drug−signal value of the solvent).

[5] = biological target: T3, cAMP pathway of MOR receptor (Homo sapiens, UniProt P35372); assay: cell-based; settings: cAMP Hunter HEK293 cells, forskolin-induced cAMP; read-out: EC50 of cAMP levels affected by agonistic effect on MOR
T3 construct: host or cells: HEK293 (cAMP Hunter cell line)
T3 sequence (P35372 whole entry): as above
Text: The purpose of this experiment was to test the agonistic effect of the compounds of the invention on the cAMP pathway of MOR and to evaluate the in vitro activity of the compounds according to EC50.
In this experiment, HitHunter cAMP Assay EFC technology of DiscoverX was used to measure the cAMP level in cells and monitor the functional status of G-protein coupled receptors (GPCRs).
The amount of signal produced was directly proportional to the amount of cAMP in the cell.
The MOR receptor was bound to the inhibitory Gαi protein, so forskolin (for inducing cAMP signal) was used to induce cAMP expression in the experiment, and the inhibitory effect of the compounds on the above induction was measured.
The cAMP Hunter cell line (HEK293, DiscoverX) was removed from the freezer and expanded according to the Cell Standard Operating Procedure (SOP), 20 μL was collected and inoculated into a 384-well microplate and incubated at 37° C. overnight.
The HitHunter cAMP Assay test kit (DiscoverX, 90-0075sm) was used, the kit contained cAMP buffer, cAMP detection solution, and cAMP working solution A.
The formula was used to calculate the percentage of signal activity per well=100%×(1−(average RLU of the test samples−average RLU of the MAX controls)/(average RLU of the solvent controls−average RLU of the MAX controls)). wherein, the MAX control referred to the fluorescence signal value of the endorphin solution, and the solvent control referred to the fluorescence signal value of DMSO. The DiscoveRx CBIS data analysis workstation (ChemInnovation, CA) was used to perform statistical analysis of the percentage of signal activity and the concentration of the compounds by the agonist formula (comes with the software, universal) to calculate the EC50 value.

Compound | 50% PWT, 30 min after administration [1] | 50% PWT, 60 min after administration [1] | PCO2, 5 min before administration ([2]; arterial blood, before administration) | PCO2, 5 min after administration ([2]; intravenous single dose 0.3 mg/kg (morphine 24 mg/kg), 5 min) | PCO2, 30 min after administration ([2]; intravenous single dose 0.3 mg/kg (morphine 24 mg/kg), 30 min) | PCO2, 60 min after administration ([2]; intravenous single dose 0.3 mg/kg (morphine 24 mg/kg), 60 min) | PCO2, 120 min after administration ([2]; intravenous single dose 0.3 mg/kg (morphine 24 mg/kg), 120 min) | Emax [3] | EC50 [4] | EC50 [5]
Cc1cc(F)cnc1C1(CCNCc2ccccc2OC(F)(F)F)CCOC2(CCCC2)C1 (stereo not drawn) [Example H10, (2-trifluoromethoxybenzyl)-[2-(9-(3-methyl-5-fluoropyridin-2-yl)-6-oxaspiro[4.5]decan-9-yl)ethyl]amine] | 8.05 ± 0.24 g | 7.59 ± 1.02 g | 35.72 ± 1.88 mmHg | 37.48 ± 1.94 mmHg | 35.03 ± 1.89 mmHg | 36.27 ± 1.67 mmHg | 36.83 ± 1.85 mmHg | 3.7% | 2.15 nM | 2.89 nM
COc1ccsc1CNCC[C@@]1(c2ccccn2)CCOC2(CCCC2)C1 [TRV130, reference compound] | 6.05 ± 0.44 g | 5.71 ± 0.33 g |  |  |  |  |  |  |  | 
